Here are results for 1 compound from patent US20040235857A1, “Crystalline therapeutic agent” (Pfizer Inc, priority 2003, published 2004).

The nature of data set [1]: TGA of the higher hydrated form of sildenafil hemi-citrate. The data set is classed as physicochemical. To be noted: temperatures in excess of 150° C.; attributed to degradation of the citrate ion. The method, then: A TGA trace showing the relative % weight loss versus temperature for the solid form of the present invention is illustrated in FIG. 7. This trace was obtained using a Perkin-Elmer Pyris 1 TGA instrument. The sample, ideally about 5 to about 10 mg, was heated at 20° C./minute from ambient to about 300° C. with a purge gas of nitrogen.

Data set [2] can be described thus: Dynamic vapour sorption (DVS) moisture sorption. It counts as physicochemical. The following applies: DVS isotherm, 30° C. The method, then: The moisture sorption of the hydrated forms of sildenafil hemi-citrate was measured using a Surface Measurement Systems Ltd. Dynamic Vapour Sorption (DVS) Automated Water Sorption Analyser. A sample of the higher hydrate was initially equilibrated at about 45% RH and then analysed from 0 to 90% RH in relative humidity steps of 10% (exposure time of 6 hours per step). A second analysis was carried out from 35 to 65% RH in 5% RH steps to gain more detail in this humidity range (exposure time variable, weight stability of 0.0003%/minute gained for each steps). The temperature was maintained at 30° C. throughout the equilibration and analysis stages.
Sildenafil hemi-citrate is a hygroscopic material. The isotherm is represented in FIG. 5. At humidities greater than 55% RH the higher hydrate is present and from 30 to 40% RH the lower hydrate is present and at 0% RH the dehydrated form is present. Hysteresis occurs between the sorption and desorption isotherms in the 10 to 30 and 40 to 55% RH regions. This is classically seen for hydrates where kinetics associated with hydration and dehydration result in the events occurring at different humidities. There are slow kinetics associated with the rate of sorption (see FIG. 6) at 50% RH (illustrated by an equilibration time of 21 hours).

`CCCc1nn(C)c2c(=O)[nH]c(-c3cc(S(=O)(=O)N4CCN(C)CC4)ccc3OCC)nc12.CCCc1nn(C)c2c(=O)[nH]c(-c3cc(S(=O)(=O)N4CCN(C)CC4)ccc3OCC)nc12.O=C(O)CC(O)(CC(=O)O)C(=O)O` [dehydrated hydrate]: in data set [1], the second weight loss entry is “about 12%”. Besides, the “relative humidity at which the form is present” value in data set [2] is recorded as 0 % RH.
